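Briefly, cells in 96-well plates were exposed to five compound concentrations for 48 h, and endpoints were estimated by linear interpolation. GI50: concentration for 50% inhibition of growth.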 Calls of active or inactive are those of the source. Rule as the data show it: active = GI50 up to about 1.1 µM and inactive = higher.
Tests used:
Test in all cases: DTP human tumour cell line panel, 48 h
[1] = system: HT-29
[2] = system: HCC 2998
[3] = system: SK-MEL-2
[4] = system: SK-MEL-28
[5] = system: COLO 205
[6] = system: OVCAR-5
[7] = system: SF-295
[8] = system: SW-620
[9] = system: LOX IMVI
[10] = system: HOP-92
[11] = system: HCT-116
[12] = system: M14
[13] = system: TK-10
[14] = system: RPMI-8226
[15] = system: SK-MEL-5
[16] = system: HCT-15
[17] = system: OVCAR-3
[18] = system: UACC-62
[19] = system: OVCAR-4
[20] = system: NCI-H460

SMILES	GI50 [1]	GI50 [2]	GI50 [3]	GI50 [4]	GI50 [5]	GI50 [6]	GI50 [7]	GI50 [8]	GI50 [9]	GI50 [10]	GI50 [11]	GI50 [12]	GI50 [13]	GI50 [14]	GI50 [15]	GI50 [16]	GI50 [17]	GI50 [18]	GI50 [19]	GI50 [20]
Nc1nnc(CCC(=O)Nc2cc(Cl)ccc2Cl)n1N	> 100 µM (inactive)	> 100 µM (inactive)	> 100 µM (inactive)	> 100 µM (inactive)	> 100 µM (inactive)	> 100 µM (inactive)	> 100 µM (inactive)	> 100 µM (inactive)	> 100 µM (inactive)	> 100 µM (inactive)	> 100 µM (inactive)	> 100 µM (inactive)	> 100 µM (inactive)	> 100 µM (inactive)	> 100 µM (inactive)	> 100 µM	> 100 µM (inactive)	> 100 µM (inactive)	> 100 µM (inactive)	> 100 µM (inactive)
N=C(NNS(=O)(=O)c1ccccc1)Oc1ccc(Cl)cc1	> 100 µM (inactive)	> 100 µM (inactive)	> 100 µM (inactive)	> 100 µM (inactive)	35.4 µM (inactive)	> 100 µM (inactive)	> 100 µM (inactive)	5.75 µM (inactive)	48.3 µM (inactive)	> 100 µM (inactive)	65.8 µM (inactive)	> 100 µM (inactive)	> 100 µM (inactive)	70.1 µM (inactive)	> 100 µM (inactive)	33.1 µM	78.5 µM (inactive)	59.8 µM (inactive)	> 100 µM (inactive)	> 100 µM (inactive)
